Assay results taken from patent publication US12310929B2, “Use of rasagiline for the treatment of restless legs syndrome” (TEVA PHARMACEUTICAL INDUSTRIES, LTD., priority 2006, dated 2025).
Where two headings read alike, the source gives them in different places.

What was measured:
RLS subjects [1] = conditions: for IRLS Total (Absolute Change) Mean / IRLS Total (Absolute Change) Median / IRLS Total (Percent Change) Mean / IRLS Total (Percent Change) Median / IRLS Total Mean / IRLS Total Median: rasagiline 1 mg/day oral
Procedure: (§1) This was the first clinical study in which rasagiline was administered to RLS subjects. The dosage regimen of 1 mg/day rasagiline was chosen based on the optimal dosage regimen for the symptomatic treatment of PD. […] Therefore, in the event that a subject could not tolerate the 1 mg daily dose of rasagiline, a daily dose of 0.5 mg rasagiline was permitted. Rasagiline was administered orally as a tablet. Both the 1 mg and 0.5 mg rasagiline tablets were beveled round tablets, flat, white to off-white, scored on one side, plain on the other side. Teva Pharmaceutical Industries Ltd. was responsible for the manufacture and primary packaging of study medications according to current Good Manufacturing Practice (cGMP) principles and guidelines applicable to investigational medicinal products.
IRLS (International Restless Legs Scale)
The IRLS scale is comprised of 10 items designed to assess the severity of sensory and motor symptoms, sleep disturbance, daytime somnolence, and impact on activities of daily living and mood associated with RLS. All items receive a grade in the range 0 to 4 (0=absence of a problem, 4=very severe problem) giving a maximum score of 40.
The investigator scored subjects on the IRLS at all scheduled study visits. The primary efficacy endpoint was based on the change from baseline to weeks 2, 4, and 8 in IRLS scores.
Each of 10 items were graded on a scale between 0 and 4 where 0 denotes the absence of a problem, and 4 a very severe problem.

RLS subjects [2] = conditions: for CGI-I Total Mean / CGI-I Total Median: scale 1-7, rasagiline 1 mg/day oral
Procedure: as §1
Subjects were scored on this scale at weeks 2, 4, and 8. The mean score at each of these time points was calculated as a secondary efficacy endpoint.

RLS subjects [3] = conditions: for IRLS QoL Total (Absolute Change) Mean / IRLS QoL Total (Absolute Change) Median / IRLS QoL Total (Percent Change) Mean / IRLS QoL Total (Percent Change) Median / IRLS QoL Total Mean / IRLS QoL Total Median: rasagiline 1 mg/day oral
Procedure: as §1
The Restless Leg Syndrome Quality of Life questionnaire (RLS QoL) assesses the impact of RLS on daily life, emotional well-being, social life and work life. It is an 18-item questionnaire with a total score ranging 0 to 100. […] The lower the score, the greater the impact of RLS on quality of life.
The RLS QoL questionnaire was completed by the investigator at the baseline and Week 4, and 8 visits. The change from baseline to each post-baseline study visit was calculated as an additional efficacy endpoint.

[4] = test system: old rats with periodic hindlimb movements; conditions: daily treatment; 3 consecutive nights beginning 7 days after onset; vs vehicle-treated rats
Procedure: In a group of old rats 16-20 months, sleep-wake behavior is recorded and hindlimb movements are detected by means of a magneto-inductive device during two 12-h light periods (Baier P. C. et al., Assessment of spontaneously occurring periodic limb movements in sleep in the rat, J. Neurol. Sci. 2002; 198(1-2): 71-77). Periodic hindlimb movements (PHLM) during nonrapid eye movement sleep (NREM) are identified according to modified human criteria in some of the rats, which are then selected for the rasagiline study. Half the rats are treated daily with rasagiline while the other half receive vehicle. Incidence of PHLM is determined for 3 consecutive nights, beginning 7 days after onset of treatment.

[5] = test system: early Parkinson's disease subjects; conditions: rasagiline-treated subjects; cited from earlier work
[6] = by eight weeks, remaining subject

SMILES: C#CCN[C@@H]1CCc2ccccc21 [rasagiline, R-(+)-N-propargyl-1-aminoindan]
- IRLS Total (Absolute Change) Mean (RLS subjects [1]; VISIT WEEK 1, N=2): −3.00
- IRLS Total (Absolute Change) Median (RLS subjects [1]; VISIT WEEK 1, N=2): −3.00
- IRLS Total (Percent Change) Mean (RLS subjects [1]; VISIT WEEK 1, N=2): −11.54%
- IRLS Total (Percent Change) Median (RLS subjects [1]; VISIT WEEK 1, N=2): −11.54%
- IRLS Total Mean (RLS subjects [1]; VISIT WEEK 1, N=2): 29.00
- IRLS Total Median (RLS subjects [1]; VISIT WEEK 1, N=2): 29.00
- IRLS Total (Absolute Change) Mean (RLS subjects [1]; VISIT WEEK 3, N=1): −14.00
- IRLS Total (Absolute Change) Median (RLS subjects [1]; VISIT WEEK 3, N=1): −14.00
- IRLS Total (Percent Change) Mean (RLS subjects [1]; VISIT WEEK 3, N=1): −53.85%
- IRLS Total (Percent Change) Median (RLS subjects [1]; VISIT WEEK 3, N=1): −53.85%
- IRLS Total Mean (RLS subjects [1]; VISIT WEEK 3, N=1): 12.00
- IRLS Total Median (RLS subjects [1]; VISIT WEEK 3, N=1): 12.00
- IRLS Total (Absolute Change) Mean (RLS subjects [1]; VISIT WEEK 4, N=2): −6.50
- IRLS Total (Absolute Change) Median (RLS subjects [1]; VISIT WEEK 4, N=2): −6.50
- IRLS Total (Percent Change) Mean (RLS subjects [1]; VISIT WEEK 4, N=2): −25.00%
- IRLS Total (Percent Change) Median (RLS subjects [1]; VISIT WEEK 4, N=2): −25.10%
- IRLS Total Mean (RLS subjects [1]; VISIT WEEK 4, N=2): 25.50
- IRLS Total Median (RLS subjects [1]; VISIT WEEK 4, N=2): 25.50
- mean IRLS Rating Scale score (RLS subjects [1]; after 2 weeks, 2 subjects, baseline mean 32): 29
- IRLS Rating Scale score (RLS subjects [1]; at 4 weeks, one subject): 13
- decrease from baseline in IRLS Rating Scale score (RLS subjects [1]; at 4 weeks, one subject): 50%
- IRLS score (RLS subjects [1]; by 8 weeks, remaining subject): 12
- decrease from baseline in IRLS score (RLS subjects [1]; by 8 weeks, remaining subject): 54%
- effect on the symptoms of RLS (RLS subjects [1]; in at least a subset of RLS patients): clinically significant effect
- IRLS Rating Scale score (RLS subjects [1]; week 4, subject who discontinued, unchanged from baseline): 38
- CGI-I Total Mean (RLS subjects [2]; VISIT WEEK 2, N=2): 3.50
- CGI-I Total Median (RLS subjects [2]; VISIT WEEK 2, N=2): 3.0
- CGI-I Total Mean (RLS subjects [2]; VISIT WEEK 4, N=2): 3.50
- CGI-I Total Median (RLS subjects [2]; VISIT WEEK 4, N=2): 3.50
- CGI-I Total Mean (RLS subjects [2]; VISIT WEEK 8, N=1): 1.00
- CGI-I Total Median (RLS subjects [2]; VISIT WEEK 8, N=1): 4.00
- RLS symptoms on the CGI-I rating scale (RLS subjects [2]; [6]): Very Much Improved
- IRLS QoL Total (Absolute Change) Mean (RLS subjects [3]; VISIT WEEK 4, N=2): 16.67
- IRLS QoL Total (Absolute Change) Median (RLS subjects [3]; VISIT WEEK 4, N=2): 16.67
- IRLS QoL Total (Percent Change) Mean (RLS subjects [3]; VISIT WEEK 4, N=2): 35.19%
- IRLS QoL Total (Percent Change) Median (RLS subjects [3]; VISIT WEEK 4, N=2): 35.19%
- IRLS QoL Total Mean (RLS subjects [3]; VISIT WEEK 4, N=2): 62.92
- IRLS QoL Total Median (RLS subjects [3]; VISIT WEEK 4, N=2): 62.92
- IRLS QoL Total (Absolute Change) Mean (RLS subjects [3]; VISIT WEEK 8, N=1): 25.00
- IRLS QoL Total (Absolute Change) Median (RLS subjects [3]; VISIT WEEK 8, N=1): 25.00
- IRLS QoL Total (Percent Change) Mean (RLS subjects [3]; VISIT WEEK 8, N=1): 37.04%
- IRLS QoL Total (Percent Change) Median (RLS subjects [3]; VISIT WEEK 8, N=1): 37.04%
- IRLS QoL Total Mean (RLS subjects [3]; VISIT WEEK 8, N=1): 92.50
- IRLS QoL Total Median (RLS subjects [3]; VISIT WEEK 8, N=1): 92.50
- improvement in the IRLS Quality of Life Questionnaire compared to baseline (RLS subjects [3]; [6]): 37%
- incidence of periodic hindlimb movements (PHLM) [4]: significantly fewer
- most commonly reported adverse events [5]: pain, headache and dizziness
- side effects typical of dopaminergic medications (hallucinations, somnolence, edema, nausea, vomiting, diarrhea) [5]: infrequently reported
